Test results published in PubChem BioAssay (NCI).
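Compound exposure: 48 hours, 5 concentrations, 96-well plates. At the GI50, growth is halved. At the TGI there is no net growth.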

How the values were obtained:
Assay in all cases: NCI tumour cell line growth inhibition, 48 h
T-47D breast = tested on: T-47D breast
SW-620 colon = tested on: SW-620 colon
HS 578T breast = tested on: HS 578T breast
MDA-MB-435 = tested on: MDA-MB-435
BT-549 breast = tested on: BT-549 breast
RXF 393 renal = tested on: RXF 393 renal
MOLT-4 leukemia = tested on: MOLT-4 leukemia
EKVX NSCLC = tested on: EKVX NSCLC
MALME-3M melanoma = tested on: MALME-3M melanoma
TK-10 renal = tested on: TK-10 renal
A498 renal = tested on: A498 renal
SK-MEL-2 melanoma = tested on: SK-MEL-2 melanoma
UACC-62 melanoma = tested on: UACC-62 melanoma
M14 melanoma = tested on: M14 melanoma
COLO 205 colon = tested on: COLO 205 colon
HCT-116 colon = tested on: HCT-116 colon
IGROV1 ovarian = tested on: IGROV1 ovarian
UACC-257 melanoma = tested on: UACC-257 melanoma
NCI-H226 lung = tested on: NCI-H226 lung
ACHN renal = tested on: ACHN renal
SR leukemia = tested on: SR leukemia
DU-145 prostate = tested on: DU-145 prostate
SN12C renal = tested on: SN12C renal
SF-268 CNS = tested on: SF-268 CNS
SK-OV-3 ovarian = tested on: SK-OV-3 ovarian
A549 NSCLC = tested on: A549 NSCLC
U251 CNS = tested on: U251 CNS
MDA-MB-231 breast = tested on: MDA-MB-231 breast
SK-MEL-28 melanoma = tested on: SK-MEL-28 melanoma
786-0 renal = tested on: 786-0 renal
SNB-75 CNS = tested on: SNB-75 CNS
SF-539 CNS = tested on: SF-539 CNS
SF-295 CNS = tested on: SF-295 CNS
UO-31 renal = tested on: UO-31 renal
RPMI-8226 leukemia = tested on: RPMI-8226 leukemia
HL-60(TB) leukemia = tested on: HL-60(TB) leukemia
CCRF-CEM leukemia = tested on: CCRF-CEM leukemia
PC-3 prostate = tested on: PC-3 prostate
OVCAR-3 ovarian = tested on: OVCAR-3 ovarian
NCI-H522 lung = tested on: NCI-H522 lung
NCI-H460 lung = tested on: NCI-H460 lung
SK-MEL-5 melanoma = tested on: SK-MEL-5 melanoma
OVCAR-5 ovarian = tested on: OVCAR-5 ovarian
HOP-62 NSCLC = tested on: HOP-62 NSCLC
K-562 leukemia = tested on: K-562 leukemia
NCI/ADR-RES ovarian = tested on: NCI/ADR-RES ovarian
NCI-H23 lung = tested on: NCI-H23 lung
HT29 colon = tested on: HT29 colon
MCF7 breast = tested on: MCF7 breast
LOX IMVI melanoma = tested on: LOX IMVI melanoma
HCT-15 colon = tested on: HCT-15 colon
OVCAR-8 ovarian = tested on: OVCAR-8 ovarian
HCC-2998 colon = tested on: HCC-2998 colon
KM12 colon = tested on: KM12 colon
CAKI-1 renal = tested on: CAKI-1 renal
SNB-19 CNS = tested on: SNB-19 CNS
HOP-92 NSCLC = tested on: HOP-92 NSCLC
OVCAR-4 ovarian = tested on: OVCAR-4 ovarian

## C=C(C)[C@@H]1CCC=C2CC[C@]3(C)[C@H](CC[C@@H]4[C@@]5(C)CCCNC(C)(C)[C@@H]5CC[C@]43C)[C@H]21
T-47D breast
  GI50: 1770 nM
  TGI: 4830 nM
SW-620 colon
  GI50: 1840 nM
  TGI: 3590 nM
HS 578T breast
  GI50: 2010 nM
  TGI: 4870 nM
MDA-MB-435
  GI50: 1660 nM
  TGI: 3110 nM
BT-549 breast
  GI50: 4500 nM
  TGI: 20700 nM
RXF 393 renal
  GI50: 1630 nM
  TGI: 3130 nM
MOLT-4 leukemia
  GI50: 1870 nM
  TGI: 4090 nM
EKVX NSCLC
  GI50: 2170 nM
  TGI: 5600 nM
MALME-3M melanoma
  GI50: 1770 nM
  TGI: 3740 nM
TK-10 renal
  GI50: 2020 nM
  TGI: 4980 nM
A498 renal
  GI50: 11700 nM
  TGI: 26900 nM
SK-MEL-2 melanoma
  GI50: 2340 nM
  TGI: 5500 nM
UACC-62 melanoma
  GI50: 1920 nM
  TGI: 3840 nM
M14 melanoma
  GI50: 1730 nM
  TGI: 3340 nM
COLO 205 colon
  GI50: 1900 nM
  TGI: 3650 nM
HCT-116 colon
  GI50: 1790 nM
  TGI: 3200 nM
IGROV1 ovarian
  GI50: 1910 nM
  TGI: 3540 nM
UACC-257 melanoma
  GI50: 3340 nM
  TGI: 9320 nM
NCI-H226 lung
  GI50: 2800 nM
  TGI: 9140 nM
ACHN renal
  GI50: 1850 nM
  TGI: 3250 nM
SR leukemia
  GI50: 1250 nM
  TGI: 3650 nM
DU-145 prostate
  GI50: 1860 nM
  TGI: 3570 nM
SN12C renal
  GI50: 1790 nM
  TGI: 3480 nM
SF-268 CNS
  GI50: 2770 nM
  TGI: 8530 nM
SK-OV-3 ovarian
  GI50: 12100 nM
  TGI: 27300 nM
A549 NSCLC
  GI50: 2040 nM
  TGI: 3860 nM
U251 CNS
  GI50: 1690 nM
  TGI: 3120 nM
MDA-MB-231 breast
  GI50: 1770 nM
  TGI: 3310 nM
SK-MEL-28 melanoma
  GI50: 2030 nM
  TGI: 4070 nM
786-0 renal
  GI50: 1680 nM
  TGI: 3040 nM
SNB-75 CNS
  GI50: 1670 nM
  TGI: 3940 nM
SF-539 CNS
  GI50: 1890 nM
  TGI: 3580 nM
SF-295 CNS
  GI50: 1690 nM
  TGI: 3130 nM
UO-31 renal
  GI50: 1530 nM
  TGI: 2990 nM
RPMI-8226 leukemia
  GI50: 2140 nM
  TGI: 5150 nM
HL-60(TB) leukemia
  GI50: 1580 nM
  TGI: 3570 nM
CCRF-CEM leukemia
  GI50: 2480 nM
  TGI: 7210 nM
PC-3 prostate
  GI50: 2310 nM
  TGI: 6210 nM
OVCAR-3 ovarian
  GI50: 1800 nM
  TGI: 3290 nM
NCI-H522 lung
  GI50: 2280 nM
  TGI: 5640 nM
NCI-H460 lung
  GI50: 1930 nM
  TGI: 3730 nM
SK-MEL-5 melanoma
  GI50: 3580 nM
  TGI: 14000 nM
OVCAR-5 ovarian
  GI50: 2010 nM
  TGI: 4460 nM

## C#C[C@]1(O)CC[C@H]2[C@@H]3CC=C4c5sc(Nc6cc(F)ccc6F)nc5CC[C@]4(C)[C@H]3CC[C@@]21C
T-47D breast
  GI50: 2490 nM
  TGI: 7690 nM
HOP-62 NSCLC
  GI50: 1770 nM
  TGI: 5700 nM
SW-620 colon
  GI50: 1780 nM
  TGI: 4380 nM
HS 578T breast
  GI50: 424 nM
  TGI: 7130 nM
K-562 leukemia
  GI50: 1960 nM
  TGI: > 100000 nM
NCI/ADR-RES ovarian
  GI50: 2790 nM
  TGI: 13800 nM
MDA-MB-435
  GI50: 2070 nM
  TGI: 4610 nM
BT-549 breast
  GI50: 661 nM
  TGI: 2430 nM
NCI-H23 lung
  GI50: 1780 nM
  TGI: 4380 nM
RXF 393 renal
  GI50: 213 nM
  TGI: 728 nM
MOLT-4 leukemia
  GI50: 416 nM
  TGI: 10200 nM
EKVX NSCLC
  GI50: 1530 nM
  TGI: 3060 nM
MALME-3M melanoma
  GI50: 1400 nM
  TGI: 2970 nM
TK-10 renal
  GI50: 2580 nM
  TGI: 5370 nM
A498 renal
  GI50: 1370 nM
  TGI: 2760 nM
SK-MEL-2 melanoma
  GI50: 1590 nM
  TGI: 4140 nM
UACC-62 melanoma
  GI50: 1740 nM
  TGI: 3750 nM
M14 melanoma
  GI50: 1280 nM
  TGI: 2770 nM
HT29 colon
  GI50: 2240 nM
  TGI: 8500 nM
COLO 205 colon
  GI50: 2050 nM
  TGI: 4810 nM
IGROV1 ovarian
  GI50: 1680 nM
  TGI: 3730 nM
MCF7 breast
  GI50: 1500 nM
  TGI: 3260 nM
UACC-257 melanoma
  GI50: 1830 nM
  TGI: 4310 nM
ACHN renal
  GI50: 1440 nM
  TGI: 2900 nM
LOX IMVI melanoma
  GI50: 1490 nM
  TGI: 2870 nM
SR leukemia
  GI50: 568 nM
  TGI: > 100000 nM
DU-145 prostate
  GI50: 1630 nM
  TGI: 3440 nM
SN12C renal
  GI50: 2150 nM
  TGI: 5230 nM
SF-268 CNS
  GI50: 1530 nM
  TGI: 3370 nM
HCT-15 colon
  GI50: 1530 nM
  TGI: 4840 nM
SK-OV-3 ovarian
  GI50: 2780 nM
  TGI: 10200 nM
A549 NSCLC
  GI50: 2510 nM
  TGI: 7860 nM
U251 CNS
  GI50: 813 nM
  TGI: 2430 nM
MDA-MB-231 breast
  GI50: 1820 nM
  TGI: 4090 nM
OVCAR-8 ovarian
  GI50: 2630 nM
  TGI: 12100 nM
SK-MEL-28 melanoma
  GI50: 1090 nM
  TGI: 2340 nM
HCC-2998 colon
  GI50: 1650 nM
  TGI: 3190 nM
786-0 renal
  GI50: 415 nM
  TGI: 1840 nM
SNB-75 CNS
  GI50: 736 nM
  TGI: 2180 nM
SF-539 CNS
  GI50: 389 nM
  TGI: 1740 nM
SF-295 CNS
  GI50: 224 nM
  TGI: 592 nM
KM12 colon
  GI50: 1970 nM
  TGI: 4340 nM
CAKI-1 renal
  GI50: 1380 nM
  TGI: 2790 nM
UO-31 renal
  GI50: 1140 nM
  TGI: 2350 nM
RPMI-8226 leukemia
  GI50: 196 nM
  TGI: 934 nM
HL-60(TB) leukemia
  GI50: 2540 nM
  TGI: 7960 nM
CCRF-CEM leukemia
  GI50: 669 nM
  TGI: 4810 nM
SNB-19 CNS
  GI50: 1600 nM
  TGI: 3230 nM
HOP-92 NSCLC
  GI50: 2060 nM
  TGI: 5490 nM
PC-3 prostate
  GI50: 1340 nM
  TGI: 10300 nM
OVCAR-4 ovarian
  GI50: 3250 nM
  TGI: 11400 nM
OVCAR-3 ovarian
  GI50: 1620 nM
  TGI: 3160 nM
NCI-H522 lung
  GI50: 2080 nM
  TGI: 5600 nM
NCI-H460 lung
  GI50: 1950 nM
  TGI: 4140 nM
SK-MEL-5 melanoma
  GI50: 1740 nM
  TGI: 3160 nM
OVCAR-5 ovarian
  GI50: 1930 nM
  TGI: 5180 nM
